In ChEMBL document CHEMBL3400016, “Isolation, synthesis and anti-hepatitis B virus evaluation of p-hydroxyacetophenone derivatives from Artemisia capillaris” (Bioorg Med Chem Lett, 2015):

Columns and labels:
[1] = test system: Hepatitis B virus; experiment: Antiviral activity against hepatitis B viral in human HepG2.2.15 cells assessed as decrease in viral DNA replication treated for 7 days by real time PCR analysis; type: functional, organism-based; conditions: HepG2 2.2.15, 168 h
[2] = test system: Hepatitis B virus; experiment: Antiviral activity against hepatitis B viral in human HepG2.2.15 cells assessed as […] antigen HBeAg secretion after 72 hrs by ELISA; type: functional, organism-based; conditions: HepG2 2.2.15, 72 h
[3] = Selectivity index, ratio of CC50 for human HepG2.2.15 cells to IC50 for decrease in hepatitis B viral surface antigen HBsAg secretion in human HepG2(2.2.15) cells; type: functional
[4] = Cytotoxicity against human HepG 2.2.15 cells by MTT assay; type: cell-based, HepG2 2.2.15
[5] = test system: Hepatitis B virus; experiment: Antiviral activity against hepatitis B viral in human HepG2.2.15 cells assessed as surface antigen HBsAg secretion after 72 hrs by ELISA; type: functional, organism-based; conditions: HepG2 2.2.15, 72 h
[6] = Selectivity index, ratio of CC50 for human HepG2.2.15 cells to IC50 for decrease in hepatitis B viral DNA replication in human HepG2(2.2.15) cells; type: functional
[7] = Selectivity index, ratio of CC50 for human HepG2.2.15 cells to IC50 for decrease in hepatitis B viral […] antigen HBeAg secretion in human HepG2(2.2.15) cells; type: functional

IC50 [1] [µM]	IC50 [2] [µM]	IC50 [5] [µM]	SMILES	Selectivity Index [3]	CC50 [4] [µM]	Selectivity Index [6]	Selectivity Index [7]
> 927	> 3710	3530	CC(=O)c1ccc(OC(=O)c2cccs2)cc1	>1	> 3710		
> 719	> 2870	2400	CC(=O)c1ccc(OC(=O)/C=C/c2ccccc2)cc1	>1.2	> 2870		
5.8	> 1480	526	COc1cc(/C=C/C(=O)OC[C@H]2O[C@@H](Oc3ccc(C(C)=O)cc3)[C@H](O)[C@@H](O)[C@@H]2O)cc(OC)c1OC	1.8	925	160.3	
92	> 2370	> 2370	COc1cc(O[C@@H]2O[C@H](CO)[C@@H](O)[C@H](O)[C@H]2O)cc(O)c1C(C)=O		> 2370	>25.7	
38.5	> 2600	> 2600	CC(=O)c1ccc(O[C@@H]2O[C@H](CO[C@@H]3OC[C@@H](O)[C@H](O)[C@H]3O)[C@@H](O)[C@H](O)[C@H]2O)cc1		> 2600	>67.5	
8	1280	291	CC(=O)c1ccc(O[C@@H]2O[C@H](COC(=O)/C=C/c3ccc(O)c(O)c3)[C@@H](O)[C@H](O)[C@H]2O)cc1	5.4	1580	>197.9	1.2
> 696	> 2780	1260	COc1cccc(/C=C/C(=O)Oc2ccc(C(C)=O)cc2)c1	>2.2	> 2780		
> 820	> 3280	> 3280	COc1ccc(/C=C/C(=O)Oc2ccc(C(C)=O)cc2)cc1		> 3280		
100	> 2620	1040	COc1ccc(/C=C/C(=O)Oc2ccc(C(C)=O)cc2)cc1OC	>2.5	> 2620	>26	
> 759	> 3040	1890	CC(=O)c1ccc(OC(=O)/C=C/c2ccc3c(c2)OCO3)cc1	>1.6	> 3040		
115	> 2420	286	COc1cc(/C=C/C(=O)Oc2ccc(C(C)=O)cc2)cc(OC)c1OC	>8.5	> 2420	>21.1	
> 777	2210	1520	CC(=O)c1ccc(OC(=O)/C=C/c2cccc(F)c2)cc1	>2	> 3110		>1.4
> 828	1520	1510	CC(=O)c1ccc(OC(=O)/C=C/c2ccc(F)cc2)cc1	>2.2	> 3310		>2.2
> 649	1710	610	CC(=O)c1ccc(OC(=O)/C=C/c2ccc(F)c(F)c2)cc1	>4.3	> 2600		>1.5
837	> 3350	2160	CC(=O)c1ccc(OC(=O)c2ccccc2)cc1	>1.5	> 3350		
88.8	> 2580	648	COc1cc(C(=O)Oc2ccc(C(C)=O)cc2)cc(OC)c1OC	1.9	1210	13.6	
154	> 3300	546	CC(=O)c1ccc(OC(=O)c2cccnc2)cc1	5.5	3010	19.5	

IC50 [1] [µM]	IC50 [2] [µM]	IC50 [5] [µM]	SMILES	Selectivity Index [3]	CC50 [4] [µM]	Selectivity Index [6]	Selectivity Index [7]
> 1010	> 4050	1830	CC(=O)c1ccc(OC(=O)c2ccco2)cc1	>2.2	> 4050		
67.3	> 1740	> 1740	CC(=O)c1ccc(O[C@@H]2O[C@H](COC(=O)/C=C/c3ccccc3)[C@@H](O)[C@H](O)[C@H]2O)cc1		> 1740	>25.9	
16.8	> 1520	499	COc1cccc(/C=C/C(=O)OC[C@H]2O[C@@H](Oc3ccc(C(C)=O)cc3)[C@H](O)[C@@H](O)[C@@H]2O)c1	>3	> 1520	>90.5	
18.5	> 2080	782	COc1ccc(/C=C/C(=O)OC[C@H]2O[C@@H](Oc3ccc(C(C)=O)cc3)[C@H](O)[C@@H](O)[C@@H]2O)cc1	2	1540	83.2	
8.8	> 1450	696	COc1ccc(/C=C/C(=O)OC[C@H]2O[C@@H](Oc3ccc(C(C)=O)cc3)[C@H](O)[C@@H](O)[C@@H]2O)cc1OC	>2.1	> 1450	>165	
74.4	> 1470	698	CC(=O)c1ccc(O[C@@H]2O[C@H](COC(=O)/C=C/c3ccc4c(c3)OCO4)[C@@H](O)[C@H](O)[C@H]2O)cc1	>2.1	> 1470	>19.8	
22.8	> 1450	434	CC(=O)c1ccc(O[C@@H]2O[C@H](COC(=O)/C=C/c3cccc(F)c3)[C@@H](O)[C@H](O)[C@H]2O)cc1	1.9	828	36.5	
64.8	> 1520	613	CC(=O)c1ccc(O[C@@H]2O[C@H](COC(=O)/C=C/c3ccc(F)cc3)[C@@H](O)[C@H](O)[C@H]2O)cc1	1.5	917	>23.4	
22.5	> 1770	515	CC(=O)c1ccc(O[C@@H]2O[C@H](COC(=O)/C=C/c3ccc(F)c(F)c3)[C@@H](O)[C@H](O)[C@H]2O)cc1	1.7	874	38.9	
93.7	> 1680	678	CC(=O)c1ccc(O[C@@H]2O[C@H](COC(=O)c3ccccc3)[C@@H](O)[C@H](O)[C@H]2O)cc1	1.5	1050	11.2	
20.7	> 1490	1350	COc1cc(C(=O)OC[C@H]2O[C@@H](Oc3ccc(C(C)=O)cc3)[C@H](O)[C@@H](O)[C@@H]2O)cc(OC)c1OC		890	42.9	
103	> 1650	1430	CC(=O)c1ccc(O[C@@H]2O[C@H](COC(=O)c3cccnc3)[C@@H](O)[C@H](O)[C@H]2O)cc1	>1.2	> 1650	>16	
101	> 1880	571	CC(=O)c1ccc(O[C@@H]2O[C@H](COC(=O)c3ccco3)[C@@H](O)[C@H](O)[C@H]2O)cc1	2.1	1170	11.7	
31.4	> 1710	301	CC(=O)c1ccc(O[C@@H]2O[C@H](COC(=O)c3cccs3)[C@@H](O)[C@H](O)[C@H]2O)cc1	5.2	1570	50.1	
306	1850	786	CC(=O)c1ccc(O)cc1 [4-HYDROXYACETOPHENONE]	3	2390	7.8	1.3
228	> 3950	> 3950	CC(=O)c1ccc(O[C@@H]2O[C@H](CO)[C@@H](O)[C@H](O)[C@H]2O)cc1 [PICEIN]		> 3950	>17.3	
2.9	> 1740	> 1740	C[C@H](Cn1cnc2c(N)ncnc21)OCP(=O)(O)O [TENOFOVIR ANHYDROUS]		> 1740	>600.8	
